Data taken from the supplement of paper PMC10307832.

Assays:
Test in all cases: relative viability (nuclei count vs DMSO), 5 days (fraction); higher = more cells survive
Omipalisib + Trametinib = compound: COc1ncc(-c2ccc3nccc(-c4ccnnc4)c3c2)cc1NS(=O)(=O)c1ccc(F)cc1F [Omipalisib] + CC(=O)Nc1cccc(-n2c(=O)n(C3CC3)c(=O)c3c(Nc4ccc(I)cc4F)n(C)c(=O)c(C)c32)c1 [Trametinib] (partner 0.02 µM)
In short: (§1)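 Values are medians from duplicate plates. Each reflects relative viability, defined as the nuclei count of treated wells over that of vehicle wells. Lung cancer cell lines in 1536-well plates were pin-tool dosed one day after seeding with one drug alone or with a fixed anchor-drug dose plus five library-drug doses (not always all listed) in √10 steps, then fixed, stained and imaged at 4× after 5 days.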

Omipalisib + Bortezomib = compound: COc1ncc(-c2ccc3nccc(-c4ccnnc4)c3c2)cc1NS(=O)(=O)c1ccc(F)cc1F [Omipalisib] + CC(C)C[C@H](NC(=O)[C@H](Cc1ccccc1)NC(=O)c1cnccn1)B(O)O [Bortezomib] (partner 0.002 µM)
In short: as §1

Omipalisib + Tozasertib = compound: COc1ncc(-c2ccc3nccc(-c4ccnnc4)c3c2)cc1NS(=O)(=O)c1ccc(F)cc1F [Omipalisib] + Cc1cc(Nc2cc(N3CCN(C)CC3)nc(Sc3ccc(NC(=O)C4CC4)cc3)n2)n[nH]1 [Tozasertib] (partner 0.1 µM)
In short: as §1

Row | Cell Line | relative viability (Omipalisib + Trametinib; first compound 0.0003 µM) | relative viability (Omipalisib + Trametinib; first compound 0.003 µM) | relative viability (Omipalisib + Trametinib; first compound 0.03 µM) | relative viability (Omipalisib + Bortezomib; first compound 0.0003 µM) | relative viability (Omipalisib + Bortezomib; first compound 0.003 µM) | relative viability (Omipalisib + Bortezomib; first compound 0.03 µM) | relative viability (Omipalisib + Tozasertib; first compound 0.0003 µM) | relative viability (Omipalisib + Tozasertib; first compound 0.003 µM) | relative viability (Omipalisib + Tozasertib; first compound 0.03 µM)
1 | NCI-H1437 | 0.583 | 0.31 | 0.209 | 0.463 | 0.465 | 0.227 | 0.422 | 0.348 | 0.244
2 | NCI-H3122 | 0.185 | 0.137 | 0.119 | 1.01 | 1.04 | 0.818 | 0.348 | 0.26 | 0.172
3 | NCI-H520 | 0.576 | 0.314 | 0.172 | 0.465 | 0.254 | 0.171 | 0.319 | 0.308 | 0.235
4 | NCI-H1734 | 0.54 | 0.362 | 0.288 | 0.937 | 0.544 | 0.276 | 0.243 | 0.233 | 0.221
5 | NCI-H1975 | 0.331 | 0.207 | 0.165 | 0.33 | 0.27 | 0.179 | 0.786 | 0.502 | 0.23
6 | LU99A | 0.5 | 0.367 | 0.22 | 1.01 | 0.728 | 0.495 | 0.289 | 0.233 | 0.215
7 | NCI-H1793 | 0.375 | 0.334 | 0.194 |  |  |  | 0.287 | 0.209 | 0.113
8 | NCI-H1355 | 0.361 | 0.263 | 0.194 | 1.16 | 0.925 | 0.375 | 0.493 | 0.409 | 0.21
9 | NCI-H2023 | 0.492 | 0.358 | 0.149 | 0.906 | 0.487 | 0.301 | 0.309 | 0.282 | 0.151
10 | NCI-H1792 | 0.42 | 0.169 | 0.116 | 0.872 | 0.927 | 0.398 |  |  | 
11 | LCLC-103H | 0.602 | 0.524 | 0.401 | 0.943 | 0.891 | 0.732 | 0.406 | 0.361 | 0.18
12 | LOU-NH91 | 0.788 | 0.666 | 0.593 | 0.543 | 0.517 | 0.453 | 0.706 | 0.621 | 0.441
13 | NCI-H838 | 0.494 | 0.389 | 0.199 | 0.743 | 0.652 | 0.234 | 0.293 | 0.222 | 0.221
14 | A-427 | 0.665 | 0.38 | 0.358 | 0.969 | 0.903 | 0.913 | 0.206 | 0.188 | 0.163
15 | NCI-H650 | 0.925 | 0.628 | 0.393 | 0.749 | 0.501 | 0.293 | 0.665 | 0.608 | 0.396
16 | NCI-H2347 | 0.245 | 0.252 | 0.215 | 1.02 | 1.06 | 0.663 | 0.66 | 0.378 | 0.211
17 | EMC-BAC-2 | 0.569 | 0.571 | 0.436 | 0.968 | 0.862 | 0.747 | 0.266 | 0.27 | 0.261

Row | Cell Line | relative viability (Omipalisib + Trametinib; first compound 0.0003 µM) | relative viability (Omipalisib + Trametinib; first compound 0.003 µM) | relative viability (Omipalisib + Trametinib; first compound 0.03 µM) | relative viability (Omipalisib + Bortezomib; first compound 0.0003 µM) | relative viability (Omipalisib + Bortezomib; first compound 0.003 µM) | relative viability (Omipalisib + Bortezomib; first compound 0.03 µM) | relative viability (Omipalisib + Tozasertib; first compound 0.0003 µM) | relative viability (Omipalisib + Tozasertib; first compound 0.003 µM) | relative viability (Omipalisib + Tozasertib; first compound 0.03 µM)
18 | EKVX | 0.42 | 0.347 | 0.152 | 1.01 | 0.777 | 0.401 | 0.407 | 0.246 | 0.157
19 | NCI-H1651 | 0.712 | 0.711 | 0.535 | 0.872 | 0.86 | 0.747 | 0.711 | 0.384 | 0.539
20 | LCLC-97TM1 | 0.179 | 0.104 | 0.117 | 0.589 | 0.477 | 0.146 | 0.169 | 0.119 | 0.0744
21 | SW 1573 | 0.441 | 0.373 | 0.226 | 0.885 | 0.818 | 0.411 | 0.171 | 0.146 | 0.109
22 | SK-MES-1 | 0.512 | 0.419 | 0.285 |  |  |  | 0.901 | 0.875 | 0.53
23 | NCI-H2009 | 0.278 | 0.16 | 0.184 | 0.979 | 0.986 | 0.584 | 0.796 | 0.674 | 0.607
24 | COR-L23 | 0.496 | 0.342 | 0.249 | 1 | 0.934 | 0.63 | 0.209 | 0.21 | 0.159
25 | 201T | 0.681 | 0.658 | 0.465 | 1.13 | 1.11 | 0.777 | 0.883 | 0.894 | 0.473
26 | NCI-H2228 | 0.505 | 0.187 | 0.173 | 0.905 | 0.577 | 0.404 | 0.343 | 0.171 | 0.126
27 | NCI-H322M | 0.478 | 0.453 | 0.416 | 1.28 | 1.01 | 1.03 | 0.467 | 0.407 | 0.348
28 | HARA | 0.694 | 0.301 | 0.188 | 1.16 | 1.15 | 0.78 | 0.11 | 0.0779 | 0.0711
29 | CAL-12T | 0.299 | 0.205 | 0.173 | 1.15 | 1.06 | 0.484 | 0.306 | 0.28 | 0.151
30 | NCI-H2087 | 0.18 | 0.163 | 0.142 | 0.851 | 0.867 | 0.736 | 0.243 | 0.224 | 0.126
31 | NCI-H727 | 0.381 | 0.337 | 0.264 | 0.841 | 0.591 | 0.511 | 0.666 | 0.623 | 0.378
32 | H3255 | 0.56 | 0.421 | 0.277 | 0.803 | 0.588 | 0.571 | 0.554 | 0.556 | 0.286
33 | LXF-289 | 0.65 | 0.747 | 0.407 | 1.03 | 0.99 | 0.808 | 0.21 | 0.0991 | 0.0753
34 | NCI-H441 | 0.474 | 0.232 | 0.184 | 0.418 | 0.362 | 0.259 | 0.683 | 0.451 | 0.238
